Laboratory results reported in PMC8655235 (Journal of Advanced Research, 2020).

Biological target: T1, mitochondrial complex I (NADH dehydrogenase) of mites (Psoroptes ovis, UniProt A0A075XDS2)
T1 sequence (A0A075XDS2 1-300): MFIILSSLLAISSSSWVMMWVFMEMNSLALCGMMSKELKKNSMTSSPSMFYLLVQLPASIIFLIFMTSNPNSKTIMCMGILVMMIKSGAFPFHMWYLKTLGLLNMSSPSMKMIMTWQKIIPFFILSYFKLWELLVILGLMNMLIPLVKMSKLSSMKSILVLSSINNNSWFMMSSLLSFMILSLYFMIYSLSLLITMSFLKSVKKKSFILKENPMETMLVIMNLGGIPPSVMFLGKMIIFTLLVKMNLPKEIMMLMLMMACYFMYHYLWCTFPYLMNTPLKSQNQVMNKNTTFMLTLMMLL
Assay: colorimetric complex I assay at […] nm, isolated mite mitochondria
Type: biochemical
Details: read-out: % inhibition at 20 ng/mL

## C=CCc1ccc(O)c(OC)c1 [eugenol, 4-allyl-2-methoxyphenol]
  inhibition at 0.02 µg/mL: 92.6%
